In patent US8518678B2, “Strain comprising increased expression of a CFA coding region for butanol production” (Butamax(TM) Advanced Biofuels LLC, priority 2007, dated 2013):
Read-outs that look alike come from different tables or passages of the source.

Key:
[1] = tested on: Lactobacillus plantarum PN2001; details: shake flask; for PN2001, % Growth inhibition: semi-synthetic LAB medium pH7; for PN2001 (cfa1 plasmid) μ: semi-synthetic LAB medium pH7, 30° C
[2] = tested on: Lactobacillus plantarum PN2014; details: shake flask; for PN2014, % Growth inhibition: semi-synthetic LAB medium pH7; for PN2014 (control plasmid) μ: semi-synthetic LAB medium pH7, 30° C
[3] = tested on: butanol non-producing bacterial cells; experiment: Feeding with fatty acids followed by screening for butanol tolerance; format: cell-based; details: fed to cells; among about ten different fatty acids tested
Excerpt: The discovery came from results of studies on feeding butanol non-producing bacterial cells with different fatty acids followed by screening for butanol tolerance.

L. plantarum PN2001 = experiment: Bioscreen-C growth analysis in MRS medium, PN2001 (cfa1); format: cell-based, Lactobacillus plantarum; details: strain PN2001 (cfa1)
Protocol: (§1) For Bioscreen-C (instrument purchased from Growth Curves USA, Piscataway N.J.) growth curves, the cultures were grown overnight in MRS medium containing 1 μg/ml erythromycin at 30° C. The next day, these were diluted to OD600 of 0.1 in the wells of the Bioscreen plate with MRS medium containing 1 μg/ml erythromycin and either 2.25% (w/v) isobutanol or no isobutanol at 30° C.
(§2) L. plantarum strains PN2001, PN2003, PN2005, PN2010, PN2012, and PN2014 were tested for growth in a Bioscreen-C growth curve machine in the presence of isobutanol as described in General Methods. These growth assays were conducted in MRS medium, which contains 1 g/L polysorbate 80 (commercially also known as Tween® 80) that serves as a source of oleic acid. Erythromycin at 1 μg/ml was added to the medium to maintain the plasmids. It is well known that L. plantarum grown in MRS medium incorporates oleic acid into membrane lipids (Johnsson et al. (1995) Appl. Environ. Microbiol. 61:4497-4499).

L. plantarum PN2003 = experiment: Bioscreen-C growth analysis in MRS medium, PN2003 (cfa1); format: cell-based, Lactobacillus plantarum; details: strain PN2003 (cfa1), 2.25% isobutanol
Protocol: as §1, §2

L. plantarum PN2005 = experiment: Bioscreen-C growth analysis in MRS medium, PN2005 (cfa2); format: cell-based, Lactobacillus plantarum; details: strain PN2005 (cfa2)
Protocol: as §1, §2

L. plantarum PN2010 = experiment: Bioscreen-C growth analysis in MRS medium, PN2010 (cfa2); format: cell-based, Lactobacillus plantarum; details: strain PN2010 (cfa2)
Protocol: as §1, §2

L. plantarum PN2012 = experiment: Bioscreen-C growth analysis in MRS medium, PN2012 (control); format: cell-based, Lactobacillus plantarum; details: strain PN2012 (no gene on plasmid)
Protocol: as §1, §2

L. plantarum PN2014 = experiment: Bioscreen-C growth analysis in MRS medium, PN2014 (control); format: cell-based, Lactobacillus plantarum; details: strain PN2014 (no gene on plasmid)
Protocol: as §1, §2

E. coli strain DPD4655 = experiment: Bioscreen-C growth in LB medium, DPD4655 (cfa overexpression); format: cell-based; details: 3 hour and 15 minute time point; for OD600 (+/− st dev): LB medium, 37° C
Protocol: (§3) E. coli strains DPD4655 and DPD4658 were grown overnight in LB medium containing 100 μg/ml ampicillin at 37° C. The next day, these were diluted to OD600 of 0.1 in the wells of a Bioscreen-C plate (instrument and plates purchased from Growth Curves USA, Piscataway N.J.) with LB medium and either 0.4%, 0.8% (w/v) isobutanol or no isobutanol at 37° C. in triplicate. OD was monitored and the OD at the 3 hour and 15 minute time point was used to calculate the % of growth in the presence of isobutanol as compared with its absence, given in Table 15.

E. coli strain DPD4658 = experiment: Bioscreen-C growth in LB medium, DPD4658 (control lacZ overexpression); format: cell-based; details: 3 hour and 15 minute time point; for OD600 (+/− st dev): LB medium, 37° C
Protocol: as §3

[4] = tested on: Lactobacillus plantarum PN1310; experiment: Change in OD600 in S36 medium, PN1310 (spoT mutant, vector); format: cell-based; details: 3% isobutanol
Excerpt: (§4) The purpose of this Example was to test the effect of a combination of cfa1 overexpression and spoT mutation on the isobutanol tolerance of Lactobacillus plantarum. To create a strain with both gene modifications, pFP996-atpB-cfa1 (described in Example 1; also called pFP996-1)) was transformed into the MS0280 strain (described in Example 4; also called PN1300) creating strain PN1312. For a control strain, pFP996 (described in Example 1) was transformed into MS0280 creating PN1310. Strain PN1312, which contained a multicopy expression plasmid with cfa1, was compared to strain PN1310, which contained the vector control.
(§5) The growth of the strains over time was followed, and tolerance compared as follows. The strains were cultured in S36 medium (contains 10 mM ammonium sulfate, 5 mM potassium phosphate buffer, pH 6.0, 50 mM MES, pH 6.0, 2 mM MgCl2, 0.7 mM CaCl2, 50 μM MnCl2, 1 μM FeCl3, 1 μM ZnCl2, 1.72 μM CuCl2, 2.53 μM CoCl2, 2.42 μM Na2MoO4, 2 μM thiamine hydrochloride, 0.01 M glucose, 0.2% yeast extract and 0.01% casamino acids) overnight at 30° C. under anaerobic conditions. The next day, cultures were started from the overnight cultures in fresh medium, with initial OD600 values of 0.18. These cultures were incubated at 30° C. under anaerobic conditions for 4 hours. During this time, PN1310 reached an OD600 of 0.83, and PN1312 reach an OD600 of 0.61. […]

[5] = tested on: Lactobacillus plantarum PN1312; experiment: Change in OD600 in S36 medium, PN1312 (spoT mutant, cfa1); format: cell-based; details: 3% isobutanol
Excerpt: as §4, §5

[6] = tested on: Lactobacillus plantarum PN2001; experiment: microbe, parasite or virus in culture; details: Lactiplantibacillus plantarum, PN2001, pH 7, read-out: PN2001, % Growth inhibition
[7] = tested on: Lactobacillus plantarum PN2014; experiment: microbe, parasite or virus in culture; details: Lactiplantibacillus plantarum, PN2014, pH 7, read-out: PN2014, % Growth inhibition
[8] = MRS medium (source of oleic acid), 30° C

CCC(C)O (stereo not shown) [2-butanol]
PN2001, % Growth inhibition ([1]; 2-butanol 3.5% w/v): 54%
PN2001 (cfa1 plasmid) μ ([1]; 2-butanol 3.5% w/v): 0.132 h⁻¹
PN2001, % Growth inhibition ([1]; 2-butanol 4.0% w/v): 56%
PN2001 (cfa1 plasmid) μ ([1]; 2-butanol 4.0% w/v): 0.125 h⁻¹
PN2001, % Growth inhibition ([1]; 2-butanol 4.25% w/v): 61%
PN2001 (cfa1 plasmid) μ ([1]; 2-butanol 4.25% w/v): 0.111 h⁻¹
PN2001, % Growth inhibition ([1]; 2-butanol 4.5% w/v): 62%
PN2001 (cfa1 plasmid) μ ([1]; 2-butanol 4.5% w/v): 0.108 h⁻¹
PN2001, % Growth inhibition ([1]; 2-butanol 4.75% w/v): 76%
PN2001 (cfa1 plasmid) μ ([1]; 2-butanol 4.75% w/v): 0.068 h⁻¹
PN2001, % Growth inhibition ([1]; 2-butanol 5.0% w/v): 73%
PN2001 (cfa1 plasmid) μ ([1]; 2-butanol 5.0% w/v): 0.078 h⁻¹
PN2014, % Growth inhibition ([2]; 2-butanol 3.5% w/v): 48%
PN2014 (control plasmid) μ ([2]; 2-butanol 3.5% w/v): 0.153 h⁻¹
PN2014, % Growth inhibition ([2]; 2-butanol 4.0% w/v): 59%
PN2014 (control plasmid) μ ([2]; 2-butanol 4.0% w/v): 0.123 h⁻¹
PN2014, % Growth inhibition ([2]; 2-butanol 4.25% w/v): 47%
PN2014 (control plasmid) μ ([2]; 2-butanol 4.25% w/v): 0.158 h⁻¹
PN2014, % Growth inhibition ([2]; 2-butanol 4.5% w/v): 79%
PN2014 (control plasmid) μ ([2]; 2-butanol 4.5% w/v): 0.061 h⁻¹
PN2014, % Growth inhibition ([2]; 2-butanol 4.75% w/v): 89%
PN2014 (control plasmid) μ ([2]; 2-butanol 4.75% w/v): 0.034 h⁻¹
PN2014, % Growth inhibition ([2]; 2-butanol 5.0% w/v): 100%
PN2014 (control plasmid) μ ([2]; 2-butanol 5.0% w/v): 0.00 h⁻¹

CCCCCCCC[C@@H]1C[C@@H]1CCCCCCCC(=O)O [dihydrosterculic acid]
effect of feeding on butanol tolerance [3]: increased butanol tolerance

CC(C)CO [isobutanol]
% Growth inhibition (L. plantarum PN2001; 2.25% isobutanol, MRS medium): 32%
μ (2.25% isobutanol) (L. plantarum PN2001; [8]): 0.32 h⁻¹
% Growth inhibition (L. plantarum PN2003): 34%
% Growth inhibition (L. plantarum PN2005; 2.25% isobutanol, MRS medium): 39%
μ (2.25% isobutanol) (L. plantarum PN2005; [8]): 0.31 h⁻¹
% Growth inhibition (L. plantarum PN2010; 2.25% isobutanol, MRS medium): 39%
μ (2.25% isobutanol) (L. plantarum PN2010; [8]): 0.33 h⁻¹
% Growth inhibition (L. plantarum PN2012; 2.25% isobutanol, MRS medium): 51%
μ (2.25% isobutanol) (L. plantarum PN2012; [8]): 0.20 h⁻¹
% Growth inhibition (L. plantarum PN2014; 2.25% isobutanol, MRS medium): 42%
μ (2.25% isobutanol) (L. plantarum PN2014; [8]): 0.22 h⁻¹
% OD +isobutanol/−isobutanol (E. coli strain DPD4655; isobutanol 0.4% (w/v)): 72%
OD600 (+/− st dev) (E. coli strain DPD4655; isobutanol 0.4% (w/v)): 0.318 +/− 0.005
% OD +isobutanol/−isobutanol (E. coli strain DPD4655; isobutanol 0.8% (w/v)): 50%
OD600 (+/− st dev) (E. coli strain DPD4655; isobutanol 0.8% (w/v)): 0.220 +/− 0.006
% OD +isobutanol/−isobutanol (E. coli strain DPD4658; isobutanol 0.4% (w/v)): 63%
OD600 (+/− st dev) (E. coli strain DPD4658; isobutanol 0.4% (w/v)): 0.259 +/− 0.004
% OD +isobutanol/−isobutanol (E. coli strain DPD4658; isobutanol 0.8% (w/v)): 42%
OD600 (+/− st dev) (E. coli strain DPD4658; isobutanol 0.8% (w/v)): 0.174 +/− 0.011
inhibited for growth ([4]; PN1310 (vector alone)): 75%
2 h Δ OD ([4]; PN1310 (vector), S36 medium, 30° C, anaerobic): 0.3
2 h Δ OD ([5]; PN1312 (cfa1), S36 medium, 30° C, anaerobic): 0.5
inhibited for growth ([5]; PN1312 (cfa1 overexpression)): 59%
growth in the presence of isobutanol (FIG. 1A) ([1]; PN2001, 3% isobutanol): grew
PN2001 (cfa1 plasmid) μ ([1]; isobutanol 2.25% w/v): 0.187 h⁻¹
PN2001 (cfa1 plasmid) μ ([1]; isobutanol 2.5% w/v): 0.119 h⁻¹
PN2001 (cfa1 plasmid) μ ([1]; isobutanol 2.75% w/v): 0.104 h⁻¹
PN2001 (cfa1 plasmid) μ ([1]; isobutanol 3.0% w/v): 0.029 h⁻¹
PN2001 (cfa1 plasmid) μ ([1]; isobutanol 3.2% w/v): 0.00 h⁻¹
growth in the presence of isobutanol (FIG. 1B) ([2]; PN2014, 3% isobutanol): did not grow
PN2014 (control plasmid) μ ([2]; isobutanol 2.25% w/v): 0.170 h⁻¹
PN2014 (control plasmid) μ ([2]; isobutanol 2.5% w/v): 0.118 h⁻¹
PN2014 (control plasmid) μ ([2]; isobutanol 2.75% w/v): 0.037 h⁻¹
PN2014 (control plasmid) μ ([2]; isobutanol 3.0% w/v): 0.00 h⁻¹
PN2014 (control plasmid) μ ([2]; isobutanol 3.2% w/v): 0.00 h⁻¹
inhibition at 2.25 % strength [6]: 46%
inhibition at 2.5 % strength [6]: 66%
inhibition at 2.75 % strength [6]: 70%
inhibition at 3 % strength [6]: 92%
inhibition at 3.2 % strength [6]: 100%
inhibition at 2.25 % strength [7]: 50%
inhibition at 2.5 % strength [7]: 66%
inhibition at 2.75 % strength [7]: 89%
inhibition at 3 % strength [7]: 100%
inhibition at 3.2 % strength [7]: 100%
